IC50 data for eleven compounds are collected here from patent publication US7504397B2, “mTOR inhibitor compounds” (Kudos Pharmaceuticals Ltd., priority 2005, dated 2009).

The assay deals with mTOR protein (Homo sapiens, UniProt P42345). As to the kind of experiment: mTOR enzyme activity assay (PHAS-1 substrate). Format: biochemical. The following applies: recombinant PHAS-1 as substrate.

Excerpt: For mTOR enzyme activity assays, mTOR protein was isolated from HeLa cell cytoplasmic extract by immunoprecipitation, and activity determined essentially as described previously using recombinant PHAS-1 as a substrate (ref. 21).

`COc1cc(C=NN(C)c2nc(N3CCOCC3)c3cccnc3n2)cc(OC)c1O` [Compound 75b]: the IC50 was under 1.5 µM. In the case of `Oc1c(F)cc(-c2csc(-c3ccnc(N4CCOCC4)n3)n2)cc1F` [Compound 59a], the IC50 is under 1.5 µM.

On to `COc1cc(-c2csc(-c3ccnc(N4CCOCC4)n3)c2)cc(OC)c1O` [Compound 69a], for which the IC50 was under 1.5 µM. Next, `COc1cc(-c2csc(-c3ccnc(N4CCOCC4)n3)n2)cc(OC)c1O` [Compound 27, 2,6-Dimethoxy-4-[2-(2-morpholin-4-yl-pyrimidin-4-yl)-thiazol-4-yl]-phenol]: under 1.5 µM.

For `COc1cc(-c2csc(-c3ccnc(N4CCOC[C@@H]4C)n3)n2)cc(OC)c1O` [Compound 59i], the IC50 was under 1.5 µM.

Consider `COc1cc(-c2csc(-c3ccnc(N4CCCC(OC)C4)n3)n2)cc(OC)c1O` (centres unmarked) [Compound 59j], for which the IC50 is under 1.5 µM. In the case of `COc1cc(C=NNc2cc(N3CCOCC3)nc(N3CCCCC3)n2)cc(OC)c1O` [Compound 12b], the IC50 was under 1.5 µM. The result for `COc1cc(-c2cncn2-c2ccnc(N3CCOCC3)n2)cc(OC)c1O` [Compound 50, 2,6-Dimethoxy-4-[3-(2-morpholin-4-yl-pyrimidin-4-yl)-3H-imidazol-4-yl]-phenol] reads under 1.5 µM.

Turning to `O=C(NNc1nc(N2CCOCC2)nc(N2CCOCC2)n1)c1cc(O)c(O)c(O)c1` [Compound 47a], the IC50 is under 1.5 µM. Next, `COc1cc2ncnc(NN=Cc3ccc(O)c(O)c3)c2cc1OC` [Compound 41a]: under 1.5 µM. The result for `CN(N=Cc1cc(O)c(O)c(O)c1)c1nc(N2CCOCC2)c2cccnc2n1` [Compound 75a] reads under 1.5 µM.

As usually defined, the IC50 is the concentration that inhibits the measured activity by half.
